Measured values reported in PubChem BioAssay (NCI).
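Test compounds were applied to cells in 96-well plates for 48 hours at 5 doses. GI50: concentration for 50% inhibition of growth. TGI is the concentration that stops growth completely.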

Legend:
Assay in all cases: DTP human tumour cell line panel, 48 h
[1] = system: DU-145 prostate
[2] = system: PC-3 prostate
[3] = system: RPMI-8226 leukemia
[4] = system: SF-539 CNS
[5] = system: HCT-116 colon
[6] = system: UO-31 renal
[7] = system: EKVX NSCLC
[8] = system: A549 NSCLC
[9] = system: HL-60(TB) leukemia
[10] = system: A498 renal
[11] = system: HS 578T breast
[12] = system: U251 CNS
[13] = system: CAKI-1 renal
[14] = system: NCI-H23 lung
[15] = system: K-562 leukemia
[16] = system: MOLT-4 leukemia
[17] = system: MDA-MB-435
[18] = system: 786-0 renal
[19] = system: SNB-75 CNS
[20] = system: SF-295 CNS
[21] = system: LOX IMVI melanoma
[22] = system: KM12 colon
[23] = system: NCI-H460 lung
[24] = system: NCI/ADR-RES ovarian
[25] = system: SR leukemia
[26] = system: NCI-H226 lung
[27] = system: SK-MEL-2 melanoma
[28] = system: OVCAR-5 ovarian
[29] = system: RXF 393 renal
[30] = system: UACC-62 melanoma
[31] = system: SF-268 CNS
[32] = system: COLO 205 colon
[33] = system: OVCAR-4 ovarian
[34] = system: OVCAR-3 ovarian
[35] = system: IGROV1 ovarian
[36] = system: ACHN renal
[37] = system: SK-MEL-5 melanoma
[38] = system: MALME-3M melanoma
[39] = system: HOP-92 NSCLC
[40] = system: MCF7 breast
[41] = system: M14 melanoma
[42] = system: MDA-MB-231 breast
[43] = system: MDA-MB-468 breast
[44] = system: TK-10 renal
[45] = system: SNB-19 CNS
[46] = system: T-47D breast
[47] = system: CCRF-CEM leukemia
[48] = system: UACC-257 melanoma
[49] = system: OVCAR-8 ovarian
[50] = system: HOP-62 NSCLC
[51] = system: SW-620 colon
[52] = system: NCI-H522 lung
[53] = system: HCT-15 colon
[54] = system: SN12C renal
[55] = system: BT-549 breast
[56] = system: HCC-2998 colon
[57] = system: SK-MEL-28 melanoma
[58] = system: SK-OV-3 ovarian
[59] = system: HT29 colon

For `Cc1ccc(C(=O)NCCCNc2nc(Nc3ccc(N4CCN(C)CC4)cc3)nc3ccsc23)cc1`, the GI50 [1] was 5.89 µM, the TGI [1] was 19.2 µM and the GI50 [2] was 3.33 µM. It also gave a TGI [2] of 14.8 µM, a GI50 [3] of 2.02 µM and a TGI [3] of 6.4 µM. It also gave a GI50 [4] of 1.73 µM, a TGI [4] of 3.42 µM and a GI50 [5] of 2.62 µM. It also gave a TGI [5] of 10.2 µM, a GI50 [6] of 3.57 µM and a TGI [6] of 15.3 µM. It also gave a GI50 [7] of 10.2 µM, a TGI [7] of 22.3 µM and a GI50 [8] of 3.99 µM. For the same molecule, the TGI [8] was 16.3 µM, the GI50 [9] was 1.99 µM and the TGI [9] was 4.52 µM. It also gave a GI50 [10] of 12.3 µM, a TGI [10] of 24.9 µM and a GI50 [11] of 2.55 µM. The TGI [11] was 18.3 µM, the GI50 [12] was 2.78 µM and the TGI [12] was 11.1 µM. It also gave a GI50 [13] of 3.3 µM, a TGI [13] of 14.1 µM and a GI50 [14] of 5.59 µM. The TGI [14] was 20.5 µM, the GI50 [15] was 1.74 µM and the TGI [15] was 18.4 µM. It also gave a GI50 [16] of 1.8 µM, a TGI [16] of 4.89 µM and a GI50 [17] of 4.31 µM. For the same molecule, the TGI [17] was 15.5 µM, the GI50 [18] was 2.02 µM and the TGI [18] was 6.3 µM. For the same molecule, the GI50 [19] was 1.91 µM, the TGI [19] was 12.1 µM and the GI50 [20] was 2.68 µM. It also gave a TGI [20] of 7.7 µM, a GI50 [21] of 1.71 µM and a TGI [21] of 3.86 µM. For the same molecule, the GI50 [22] was 4.02 µM, the TGI [22] was 15.8 µM and the GI50 [23] was 3.75 µM. It also gave a TGI [23] of 14 µM, a GI50 [24] of 3.11 µM and a TGI [24] of 11.4 µM. The GI50 [25] was 1.69 µM, the TGI [25] was 4.71 µM and the GI50 [26] was 4.79 µM. The TGI [26] was 19.4 µM, the GI50 [27] was 4.33 µM and the TGI [27] was 16.5 µM. For the same molecule, the GI50 [28] was 11 µM, the TGI [28] was 25.5 µM and the GI50 [29] was 1.47 µM. For the same molecule, the TGI [29] was 3.71 µM, the GI50 [30] was 1.98 µM and the TGI [30] was 4.21 µM. For the same molecule, the GI50 [31] was 2.46 µM, the TGI [31] was 17.9 µM and the GI50 [32] was 2.35 µM. For the same molecule, the TGI [32] was 5.43 µM, the GI50 [33] was 3.45 µM and the TGI [33] was 15 µM. The GI50 [34] was 3.08 µM, the TGI [34] was 10.9 µM and the GI50 [35] was 4.4 µM. The TGI [35] was 17 µM, the GI50 [36] was 3.99 µM and the TGI [36] was 15 µM. For the same molecule, the GI50 [37] was 1.84 µM, the TGI [37] was 4.08 µM and the GI50 [38] was 1.79 µM. For the same molecule, the TGI [38] was 3.27 µM, the GI50 [39] was 2.23 µM and the TGI [39] was 10.4 µM. It also gave a GI50 [40] of 3.22 µM, a TGI [40] of 11.4 µM and a GI50 [41] of 2.14 µM. For the same molecule, the TGI [41] was 4.77 µM, the GI50 [42] was 3.17 µM and the TGI [42] was 10.7 µM. The GI50 [43] was 1.3 µM, the TGI [43] was 4.45 µM and the GI50 [44] was 3.14 µM. The TGI [44] was 9.36 µM, the GI50 [45] was 10.2 µM and the TGI [45] was 22.2 µM. It also gave a GI50 [46] of 2.25 µM, a TGI [46] of 7.62 µM and a GI50 [47] of 1.87 µM. For the same molecule, the TGI [47] was > 100 µM, the GI50 [48] was 2.2 µM and the TGI [48] was 6.2 µM. For the same molecule, the GI50 [49] was 3 µM, the TGI [49] was 11.7 µM and the GI50 [50] was 10.3 µM. The TGI [50] was 23.4 µM, the GI50 [51] was 2.63 µM and the TGI [51] was 8 µM. For the same molecule, the GI50 [52] was 2.21 µM, the TGI [52] was 5.86 µM and the GI50 [53] was 2.54 µM. The TGI [53] was 11.2 µM, the GI50 [54] was 7.19 µM and the TGI [54] was 20.7 µM. The GI50 [55] was 2.46 µM, the TGI [55] was 7.15 µM and the GI50 [56] was 3.44 µM. The TGI [56] was 9.5 µM, the GI50 [57] was 2.18 µM and the TGI [57] was 4.64 µM. The GI50 [58] was 10.8 µM, the TGI [58] was 24 µM and the GI50 [59] was 2.06 µM. For the same molecule, the TGI [59] was 5.96 µM.
